Results on 22 compounds are retold here after patent publication US20040018501A1, “Methods and systems for analyzing complex biological systems” (priority 2001, published 2004).

Assay [1] deals with Arabidopsis thaliana. Put plainly: MOA1 gene expression profiling (22,000-gene microarray). The settings on record: regulated genes compared to internal list of essential genes.
The subject of assay [2] is Arabidopsis thaliana plants. Put plainly: SOA1 phenotypic analysis of herbicide-treated plants. The settings on record: for Symptom Class: three-week-old plants, foliar spray; for characteristic symptoms (phenotype): herbicide-treated plants. In kind it is in vivo.
Assay [3] deals with Arabidopsis thaliana. Description: MOA1 biochemical (metabolite) profiling by LC-MS and GC-MS. Particulars: within one hour after spraying.
Assay [4] concerns Saccharomyces cerevisiae wild type strain BY4743. Description: AF1 yeast metabolite analysis by GC-MS and LC-MS. The format is cell-based.
[5] abbreviates: numeric value standardized to mock treated.

On to `O=C(O)c1ccccc1C(=O)Nc1cccc2ccccc12` [Naptalam], for which, in assay [1], the “No. of Lethal Genes Altered” value is on record as 3.
For the compound `O=C(O)COc1ccc(Cl)cc1Cl` [2,4-D], the “tMic Dev.” value in assay [2] (setting [5]) stood at 2. Also, the “Symptom Class” value in assay [2] is reported as 5.
In the case of `CCNc1nc(Cl)nc(NC(C)C)n1` [Atrazine], the “characteristic symptoms (phenotype)” value in assay [2] was “rapid and widespread leaf necrosis”.
Consider `CP(=O)(O)CCC(N)C(=O)O` (centres unmarked) [Glufosinate], for which, in assay [2], the “characteristic symptoms (phenotype)” value is “Chlorosis and leaf curling”; the “Symptom Class” value stood at 3. The “tMic Dev.” value in assay [2] (setting [5]) was 1. Besides, the “No. of Lethal Genes Altered” value in assay [1] is 10.
In the case of `O=C(O)c1cc(Oc2ccc(C(F)(F)F)cc2Cl)ccc1[N+](=O)[O-]` [Acifluorfen], the “characteristic symptoms (phenotype)” value in assay [2] is listed as “Necrotic leaf flecks”.
`COc1nc(C)nc(NC(=O)NS(=O)(=O)c2ccccc2Cl)n1` [Chlorsulfuron]: the “characteristic symptoms (phenotype)” value in assay [2] was “anthocyanin accumulation in the older leaves accompanied by chlorosis of the newly emerging leaves”. Further, the “No. of Lethal Genes Altered” value in assay [1] turned out to be 8.
On to `CCSC(=O)N(CC(C)C)CC(C)C` [Butylate], for which the stress-related metabolites result in assay [3] was “neither butylate nor chlorpropham treatment resulted in many changes”.
In the case of `C[n+]1ccc(-c2cc[n+](C)cc2)cc1` [Paraquat], in assay [2], the “characteristic symptoms (phenotype)” value is “rapid and widespread leaf necrosis”; the “Symptom Class” value came to 7.
In the case of `CC(C)C1(C)N=C(c2ncccc2C(=O)O)NC1=O` (centres unmarked) [Imazapyr], the “characteristic symptoms (phenotype)” value in assay [2] is “anthocyanin accumulation in the older leaves accompanied by chlorosis of the newly emerging leaves”.
Turning to `CSc1nnc(C(C)(C)C)c(=O)n1N` [Metribuzin], in assay [2], the “characteristic symptoms (phenotype)” value was “rapid and widespread leaf necrosis”.
As to `CN(C)C(=O)Nc1ccc(Cl)c(Cl)c1` [Diuron], in assay [2], the “characteristic symptoms (phenotype)” value is “rapid and widespread leaf necrosis”; the “Symptom Class” value was 7. Also, in assay [2] (setting [5]), the “newLeafAnthocyanins Dev.” value is recorded as “newLeafAnthocyanins 0” and the “tMic Dev.” value came out at 1.
`COC(=O)NS(=O)(=O)c1ccc(N)cc1` [Asulam]: the “No. of Lethal Genes Altered” value in assay [1] is recorded as 5.
For `OC(Cn1cncn1)(Cn1cncn1)c1ccc(F)cc1F` [Fluconazole], in assay [4] (GC), the “Fold Change of TMS mevalonic acid lactone” value is 0.1434, the “Fold Change of squalene” value was 0.1999, the “Fold Change of tetradecanoic acid” value is listed as 0.07967 and the “Fold Change of threonine2” value was found to be 0.5053. Moreover, in assay [4] (GC), the “Fold Change of threonine3” value stood at 0.2513, the “Fold Change of tms glutamine3” value was 0.7271, the “Fold Change of tms lysine4” value is 0.3657 and the “Fold Change of tms tyrosine2” value worked out at 0.8643. Also, in assay [4] (GC), the “Fold Change of tms tyrosine3” value was determined as 0.3321 and the “Fold Change of valine” value stood at 0.2727. In addition, in assay [4] (nLC), the “Fold Change of retinoic acid” value stood at 0, the “Fold Change of salicylic/HObenzoic” value was determined as 0, the “Fold Change of selenoDLmethionine” value is reported as −0.5748 and the “Fold Change of serine” value is given as 0.3936. For the same compound, in assay [4] (nLC), the “Fold Change of shikimic acid” value worked out at 0, the “Fold Change of sinapinic acid” value was 0, the “Fold Change of sorbitol/mannitol” value is 0.365 and the “Fold Change of succinic” value came to 0.3094. In addition, in assay [4] (nLC), the “Fold Change of sucrose” value was found to be 0.3104, the “Fold Change of sugar-phosphate” value is −0.05306, the “Fold Change of tetradecanoic acid” value was 0.5495 and the “Fold Change of threonine/homoserin” value was determined as 0.3257. In addition, in assay [4] (nLC), the “Fold Change of thymine” value is listed as 0, the “Fold Change of tryptophan” value is 1.649, the “Fold Change of tyrosine” value was found to be 0.2303 and the “Fold Change of uracil” value stood at 1.256. Besides, in assay [4] (nLC), the “Fold Change of uridine” value was 0.3463, the “Fold Change of urocanic acid” value was 0, the “Fold Change of valine” value came out at 0.3235 and the “Fold Change of xanthosineDiH2O” value is listed as 0. The “Fold Change of zeatin” value in assay [4] (nLC) is 0. Moreover, in assay [4] (pLC), the “Fold Change of riboflavin” value came out at 0, the “Fold Change of selenoDLmethionine” value is −0.6865, the “Fold Change of serine” value stood at 0.11 and the “Fold Change of sugar-phosphate” value was determined as 0. In assay [4] (pLC), the “Fold Change of thiamine” value was 0, the “Fold Change of threonine/homoserin” value is 0.1604, the “Fold Change of thymine” value worked out at 0 and the “Fold Change of tryptophan” value is recorded as 0. For the same compound, in assay [4] (pLC), the “Fold Change of tyrosine” value is 0.1099, the “Fold Change of uric acid” value was 0, the “Fold Change of urocanic acid” value came to 0 and the “Fold Change of xanthosine(diH2O)” value is 0. For the same compound, the “Fold Change of zeatin” value in assay [4] (pLC) is on record as 0. Further, in assay [4] (platform GC), the “Fold Change of campesterol” value is given as 0, the “Fold Change of desmosterol” value was 0 and the “Fold Change of octadecanoic acid” value was found to be 0.082. Further, in assay [4] (platform LC), the “Fold Change of abscisic acid” value was 0 and the “Fold Change of adenosine” value is reported as 0. Further, in assay [4] (platform nLC), the “Fold Change of 4-methylcatechol” value amounted to 0, the “Fold Change of 5hydroxyLtryptophan” value was found to be 0, the “Fold Change of 6-benzylaminopurine” value came out at 0 and the “Fold Change of NacetylDglucosamine” value is listed as 0. In addition, in assay [4] (platform nLC), the “Fold Change of NacetylLornithine” value was 0, the “Fold Change of abscisic acid” value was 0, the “Fold Change of adenine” value is 0 and the “Fold Change of adenosine” value was determined as 0. In assay [4] (platform nLC), the “Fold Change of anthranilic acid” value turned out to be 0, the “Fold Change of argininosuccinate” value is 0, the “Fold Change of benzoic acid” value is listed as 0 and the “Fold Change of catechol” value came to 0. Besides, in assay [4] (platform nLC), the “Fold Change of cinnamic acid” value is listed as 0, the “Fold Change of citricanoic/itaconi” value amounted to 0, the “Fold Change of citrulline” value is listed as 0 and the “Fold Change of coumaric acid” value was determined as 0. Moreover, in assay [4] (platform nLC), the “Fold Change of cytosine” value was found to be 0, the “Fold Change of diaminopimelic acid” value was found to be 0, the “Fold Change of dihydrofolic acid” value is 0 and the “Fold Change of estrone” value was 0. Further, in assay [4] (platform nLC), the “Fold Change of farnesol” value is 0, the “Fold Change of folic acid” value turned out to be 0, the “Fold Change of gibberellic” value turned out to be 0 and the “Fold Change of glutamine/lysine” value amounted to 0.3309. In assay [4] (platform nLC), the “Fold Change of guanine” value is listed as 0, the “Fold Change of histidine” value was found to be 0, the “Fold Change of homogentisic/uric” value worked out at 0 and the “Fold Change of hydrocortisone” value is given as 0. In assay [4] (platform nLC), the “Fold Change of indole3pyruvic acid” value came to 0, the “Fold Change of jasmonic acid” value is on record as 0, the “Fold Change of kinetin” value amounted to 0 and the “Fold Change of luteolin” value turned out to be 0. For the same compound, in assay [4] (platform nLC), the “Fold Change of malonic acid” value came out at 0, the “Fold Change of methionine” value stood at 0, the “Fold Change of orotic acid” value is reported as 0 and the “Fold Change of phenylpyruvic acid” value worked out at 0. In assay [4] (platform nLC), the “Fold Change of phosphoenolpyruvate” value is 0, the “Fold Change of pinitol” value amounted to 0 and the “Fold Change of porphobilinogen” value was 0. Further, in assay [4] (platform pLC), the “Fold Change of 4-aminobenzoic acid” value was 0, the “Fold Change of 4-methylcatechol” value was determined as 0, the “Fold Change of 5hydroxyLtryptophan” value worked out at 0 and the “Fold Change of 6benzylaminopurine” value is listed as 0. Besides, in assay [4] (platform pLC), the “Fold Change of NacetylDglucosamine” value was 0, the “Fold Change of NacetylLglutamate” value amounted to 0, the “Fold Change of allantoic acid” value stood at 0 and the “Fold Change of anthranilic acid” value was found to be 0. In addition, in assay [4] (platform pLC), the “Fold Change of argininosuccinate” value was found to be 0, the “Fold Change of biotin” value stood at 0, the “Fold Change of caffeine” value is 0 and the “Fold Change of citric acid TME” value is 0. Further, in assay [4] (platform pLC), the “Fold Change of cytidine” value worked out at 0, the “Fold Change of cytosine” value is given as 0, the “Fold Change of diaminopimelic acid” value is reported as 0 and the “Fold Change of dihydrofolic acid” value is recorded as 0. Further, in assay [4] (platform pLC), the “Fold Change of dipicolinic acid” value is 0, the “Fold Change of folic acid” value is 0, the “Fold Change of glucosamine” value is 0 and the “Fold Change of glucosamine6PO4” value is given as 0. Moreover, in assay [4] (platform pLC), the “Fold Change of histidine” value is reported as 0, the “Fold Change of hydrocortisone” value was 0, the “Fold Change of itaconic acid dimes” value is 0 and the “Fold Change of kinetin” value turned out to be 0. In assay [4] (platform pLC), the “Fold Change of luteolin” value amounted to 0, the “Fold Change of niacinamide” value worked out at 0, the “Fold Change of nopaline” value turned out to be 0 and the “Fold Change of phosphoenolpyruvate” value was determined as 0. For the same compound, the “Fold Change of progesterone” value in assay [4] (platform pLC) stood at 0.
For the compound `CC[C@@H]([C@H](C)O)n1ncn(-c2ccc(N3CCN(c4ccc(OC[C@@H]5CO[C@@](Cn6cncn6)(c6ccc(F)cc6F)C5)cc4)CC3)cc2)c1=O` [Posaconazote], the “Fold Change, porphobilinogen” value in assay [4] (detected metabolite porphobilinogen, platform nLC) is 0.
Take `CC(C)OC(=O)Nc1cccc(Cl)c1` [Chloropropham]: the stress-related metabolites entry in assay [3] is reported as “neither butylate nor chlorpropham treatment resulted in many changes”.
For the compound `CC(C)N1C(=O)c2ccccc2NS1(=O)=O` [Bentazon], in assay [2], the “characteristic symptoms (phenotype)” value was “rapid and widespread leaf necrosis”.
On to `CC(=O)N1CCN(c2ccc(OCC3COC(Cn4ccnc4)(c4ccc(Cl)cc4Cl)O3)cc2)CC1` (centres unmarked) [Ketoconazole], for which the “# Compounds perturbed” value in assay [4] (P < 0.1, 2×MIC, two hours) came out at 15.
In the case of `COC(=O)c1cc(Oc2ccc(Cl)cc2Cl)ccc1[N+](=O)[O-]` [Bifenox], in assay [2], the “characteristic symptoms (phenotype)” value is given as “Necrotic leaf flecks”.
As for `CC[C@@H]([C@H](C)O)n1ncn(-c2ccc(N3CCN(c4ccc(OC[C@@H]5CO[C@@](Cn6cncn6)(c6ccc(F)cc6F)C5)cc4)CC3)cc2)c1=O` [Posaconazoie], the “Fold Change of luteolin” value in assay [4] (LC) was 0.
As to `c1cc[n+]2c(c1)-c1cccc[n+]1CC2` [Diquat], in assay [2], the “characteristic symptoms (phenotype)” value was “rapid and widespread leaf necrosis”; the “Symptom Class” value is 7. Moreover, the “tMic Dev.” value in assay [2] (setting [5]) was 2.
As for `CCc1cnc(C2=NC(C)(C(C)C)C(=O)N2)c(C(=O)O)c1` (centres unmarked) [Imazethapyr], the “characteristic symptoms (phenotype)” value in assay [2] is given as “anthocyanin accumulation in the older leaves accompanied by chlorosis of the newly emerging leaves”.
`Nc1nc[nH]n1` [Amitrole]: in assay [2], the “characteristic symptoms (phenotype)” value is “leaf bleaching and leaf enlargement”.
